Experimental data from ChEMBL document CHEMBL3745609, “Discovery of pyrazolopyrimidine phosphodiesterase 10A inhibitors for the treatment of schizophrenia” (Bioorg Med Chem Lett, 2016).
≈ marks a conversion by molar mass, not a printed value. Calls of active or inactive are those of the source. The rule behind the calls is not given here.

Key:
[1] = target: cAMP and cAMP-inhibited cGMP 3',5'-cyclic phosphodiesterase 10A (Homo sapiens, UniProt Q9Y233); experiment: Inhibition of PDE10A (unknown origin) by IMAP assay
[2] = target: T1, Nuclear receptor subfamily 1 group I member 2 (Homo sapiens, UniProt O75469); experiment: Activation of PXR (unknown origin); type: ADME
T1 sequence (O75469 whole entry): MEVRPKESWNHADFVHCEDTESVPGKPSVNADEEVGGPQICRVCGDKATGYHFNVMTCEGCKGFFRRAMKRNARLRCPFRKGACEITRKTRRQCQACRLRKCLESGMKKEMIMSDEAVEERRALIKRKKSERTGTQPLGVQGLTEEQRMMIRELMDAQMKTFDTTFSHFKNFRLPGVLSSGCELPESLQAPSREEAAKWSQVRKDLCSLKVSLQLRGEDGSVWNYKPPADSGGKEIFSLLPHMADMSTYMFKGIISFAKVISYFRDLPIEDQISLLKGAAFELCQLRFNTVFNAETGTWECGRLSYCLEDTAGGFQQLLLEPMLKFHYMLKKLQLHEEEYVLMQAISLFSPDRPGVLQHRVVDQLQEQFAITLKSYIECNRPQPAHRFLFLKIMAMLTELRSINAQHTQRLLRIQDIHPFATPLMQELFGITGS

[3] = Aqueous solubility of the compound at pH 7; type: physicochemical
[4] = Plasma protein binding in iv dosed Wistar Hanover rat; type: ADME, organism-based; conditions: read-out: PPB (converted)
[5] = target: T2, Cytochrome P450 3A4 (Homo sapiens, UniProt P08684); experiment: Inhibition of CYP3A4 (unknown origin); type: ADME
[6] = target: Cytochrome P450 2D6 (Homo sapiens, UniProt P10635); experiment: Inhibition of CYP2D6 (unknown origin); type: ADME
[7] = organism: Rattus norvegicus; experiment: Anti-psychotic activity in rat assessed as reversal of MK-801-induced prepulse inhibition; type: functional, organism-based
[8] = Lipophilicity, log D of the compound at pH 7 by HPLC method; type: physicochemical; conditions: buffer
[9] = target: Voltage-gated inwardly rectifying potassium channel KCNH2 (Homo sapiens, UniProt Q12809); experiment: Inhibition of MK-499 binding to human ERG
[10] = Apparent passive permeability of the compound; type: physicochemical; conditions: not told
[11] = tested on: P-gp; experiment: Substrate activity at human P-gp assessed as efflux ratio of permeability across basolateral to apical over apical to basolateral side; type: ADME; conditions: not told
[12] = tested on: P-gp; experiment: Substrate activity at rat P-gp assessed as efflux ratio of permeability across basolateral to apical over apical to basolateral side; type: ADME; conditions: not told
[13] = target: T2, Cytochrome P450 3A4; experiment: Time dependent inhibition of CYP3A4 (unknown origin); type: ADME
[14] = Plasma clearance in iv dosed Wistar Hanover rat; type: ADME, organism-based
[15] = Plasma protein binding in iv dosed beagle dog; type: ADME, organism-based, Canis lupus familiaris; conditions: read-out: PPB (converted)
[16] = Plasma protein binding in iv dosed rhesus monkey; type: ADME, organism-based, Macaca mulatta; conditions: read-out: PPB (converted)
[17] = Plasma protein binding in iv dosed human; type: ADME, organism-based; conditions: read-out: PPB (converted)
[18] = Inhibition of platelet aggregation factor (unknown origin); design: species or system Homo sapiens
[19] = tested on: Rattus norvegicus; experiment: Toxicity in rat up to 250 mg/kg after 7 days; type: organism-based; conditions: in vivo, 168 h
[20] = Plasma clearance in iv dosed beagle dog; type: ADME, organism-based, Canis lupus familiaris
[21] = Plasma clearance in iv dosed rhesus monkey; type: ADME, organism-based, Macaca mulatta
[22] = Terminal half life in iv dosed Wistar Hanover rat; type: ADME, organism-based; conditions: in vivo, read-out: beta t1/2 (converted)
[23] = Terminal half life in iv dosed beagle dog; type: ADME, organism-based, Canis lupus familiaris; conditions: in vivo, read-out: beta t1/2 (converted)
[24] = Terminal half life in iv dosed rhesus monkey; type: ADME, organism-based, Macaca mulatta; conditions: in vivo, read-out: beta t1/2 (converted)
[25] = Oral bioavailability in Wistar Hanover rat; type: ADME, organism-based; conditions: in vivo
[26] = Oral bioavailability in beagle dog; type: ADME, organism-based, Canis lupus familiaris; conditions: in vivo
[27] = Oral bioavailability in rhesus monkey; type: ADME, organism-based, Macaca mulatta; conditions: in vivo
[28] = tested on: Rattus norvegicus; experiment: In vivo inhibition of PDE10A in rat striatum assessed as increase in cGMP level at >3 mg/kg, po after 2 hrs relative to control; type: functional
[29] = tested on: Rattus norvegicus; experiment: Anti-psychotic activity in rat assessed as plasma concentration needed to attenuate MK-801-induced hyperlocomotion at 1.5 mg/kg, po; type: functional
[30] = tested on: Rattus norvegicus; experiment: Cognition enhancing activity in rat assessed as increase in episodic like memory up to 1.5 mg/kg, po by novel object recognition assay; type: functional, organism-based
[31] = tested on: Salmonella typhimurium; experiment: Mutagenicity in Salmonella typhimurium up to 5000 ug/plate by 5-strain Ames test; type: toxicity, organism-based; conditions: salmonella enterica subsp. enterica serovar typhimurium
[32] = organism: Cavia porcellus; experiment: Toxicity in guinea pig; type: organism-based; conditions: in vivo
[33] = tested on: Rattus norvegicus; experiment: Cardiotoxicity in iv dosed rat; type: toxicity, organism-based; conditions: in vivo
[34] = tested on: Rattus norvegicus; experiment: Toxicity in rat assessed as influence on circulating prolactin level up to 30 mg/kg, po; type: organism-based; conditions: in vivo
[35] = tested on: Rattus norvegicus; experiment: Toxicity in rat assessed as induction of catalepsy up to 30 mg/kg, po; type: organism-based; conditions: in vivo
[36] = organism: Rattus norvegicus; experiment: Toxicity in rat assessed as decrease in body weight gain after 7 days; type: organism-based; conditions: in vivo, 168 h
[37] = organism: Rattus norvegicus; experiment: Toxicity in rat assessed as decrease in total body fat after 7 days; type: organism-based; conditions: in vivo, 168 h
[38] = organism: Rattus norvegicus; experiment: Toxicity in rat assessed as lean body mass after 7 days; type: organism-based; conditions: in vivo, 168 h
[39] = tested on: Rhesus monkey; experiment: In-vivo occupancy at PDE10A in rhesus monkey assessed as inhibition of [11C]MK-8193 binding; type: functional, Macaca mulatta
[40] = tested on: Rhesus monkey; experiment: Potency index, ratio of THPP-1 Occ50 to compound Occ50 for in-vivo occupancy at PDE10A in rhesus monkey assessed as inhibition of [11C]MK-8193 binding; type: functional, Macaca mulatta
[41] = organism: Homo sapiens; experiment: Selectivity for PDE10A (unknown origin) over PDE (unknown origin)
[42] = Plasma protein binding in rat; type: ADME, cell-free; conditions: read-out: PPB (converted)
[43] = Clearance in rat; type: ADME, organism-based; conditions: in vivo
[44] = target: Cytochrome P450 2C9 (Homo sapiens, UniProt P11712); experiment: Inhibition of CYP2C9 (unknown origin); type: ADME
Cytochrome P450 2C9, sequence (P11712 whole entry): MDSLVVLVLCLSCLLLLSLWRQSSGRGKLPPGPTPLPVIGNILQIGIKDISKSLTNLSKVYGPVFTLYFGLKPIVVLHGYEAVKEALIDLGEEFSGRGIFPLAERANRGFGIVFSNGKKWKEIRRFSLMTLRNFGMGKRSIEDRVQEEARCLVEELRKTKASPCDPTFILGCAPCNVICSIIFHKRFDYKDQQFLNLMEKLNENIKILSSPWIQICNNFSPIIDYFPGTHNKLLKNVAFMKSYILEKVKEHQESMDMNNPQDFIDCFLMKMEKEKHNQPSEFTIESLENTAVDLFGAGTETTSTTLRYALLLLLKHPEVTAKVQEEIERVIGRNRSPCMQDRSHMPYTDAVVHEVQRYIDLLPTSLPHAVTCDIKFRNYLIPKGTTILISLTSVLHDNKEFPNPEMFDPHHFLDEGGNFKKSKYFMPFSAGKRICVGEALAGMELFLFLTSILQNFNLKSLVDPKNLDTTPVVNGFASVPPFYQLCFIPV

T2 sequence (P08684 whole entry): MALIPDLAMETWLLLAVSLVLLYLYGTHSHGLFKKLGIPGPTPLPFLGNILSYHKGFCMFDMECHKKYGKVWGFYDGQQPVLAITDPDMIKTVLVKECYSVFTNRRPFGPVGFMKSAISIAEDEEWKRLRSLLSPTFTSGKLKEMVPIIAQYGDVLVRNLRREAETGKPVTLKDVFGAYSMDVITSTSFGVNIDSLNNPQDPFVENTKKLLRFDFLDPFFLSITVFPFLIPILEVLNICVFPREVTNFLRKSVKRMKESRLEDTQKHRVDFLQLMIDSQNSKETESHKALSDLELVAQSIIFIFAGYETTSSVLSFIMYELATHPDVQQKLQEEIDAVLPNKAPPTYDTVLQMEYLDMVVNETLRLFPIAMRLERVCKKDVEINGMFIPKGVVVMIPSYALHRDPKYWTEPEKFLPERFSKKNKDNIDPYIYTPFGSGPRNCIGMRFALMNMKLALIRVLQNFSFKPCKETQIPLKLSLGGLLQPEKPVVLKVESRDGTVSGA
Voltage-gated inwardly rectifying potassium channel KCNH2, sequence (Q12809 whole entry): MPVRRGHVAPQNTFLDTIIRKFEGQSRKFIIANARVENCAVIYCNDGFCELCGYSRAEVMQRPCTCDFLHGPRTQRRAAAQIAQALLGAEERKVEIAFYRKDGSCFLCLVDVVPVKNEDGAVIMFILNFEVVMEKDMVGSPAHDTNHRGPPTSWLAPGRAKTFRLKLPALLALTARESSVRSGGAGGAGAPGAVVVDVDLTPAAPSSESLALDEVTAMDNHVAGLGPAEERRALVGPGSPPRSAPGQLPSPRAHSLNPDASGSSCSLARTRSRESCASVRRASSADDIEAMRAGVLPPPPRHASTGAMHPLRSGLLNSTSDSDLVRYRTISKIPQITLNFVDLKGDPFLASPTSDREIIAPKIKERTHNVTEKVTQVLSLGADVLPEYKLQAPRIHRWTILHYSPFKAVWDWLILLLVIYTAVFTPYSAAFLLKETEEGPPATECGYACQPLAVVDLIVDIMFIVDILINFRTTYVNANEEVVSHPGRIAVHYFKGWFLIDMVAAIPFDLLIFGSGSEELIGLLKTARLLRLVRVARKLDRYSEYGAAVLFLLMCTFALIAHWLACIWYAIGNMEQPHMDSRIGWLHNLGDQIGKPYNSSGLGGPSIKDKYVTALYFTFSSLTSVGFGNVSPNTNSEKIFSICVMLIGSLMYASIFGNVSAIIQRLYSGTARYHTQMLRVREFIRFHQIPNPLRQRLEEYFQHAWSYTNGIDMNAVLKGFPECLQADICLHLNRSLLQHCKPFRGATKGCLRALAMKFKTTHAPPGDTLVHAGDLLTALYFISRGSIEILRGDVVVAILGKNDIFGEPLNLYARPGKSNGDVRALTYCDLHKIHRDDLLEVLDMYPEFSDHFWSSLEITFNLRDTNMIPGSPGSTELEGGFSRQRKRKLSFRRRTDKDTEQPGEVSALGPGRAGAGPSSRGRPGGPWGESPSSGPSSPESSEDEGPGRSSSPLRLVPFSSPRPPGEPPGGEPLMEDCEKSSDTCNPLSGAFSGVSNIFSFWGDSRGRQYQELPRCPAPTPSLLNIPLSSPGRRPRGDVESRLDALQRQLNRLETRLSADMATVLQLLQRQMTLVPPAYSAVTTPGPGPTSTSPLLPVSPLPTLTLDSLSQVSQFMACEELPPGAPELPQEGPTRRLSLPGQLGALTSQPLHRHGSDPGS
cAMP and cAMP-inhibited cGMP 3',5'-cyclic phosphodiesterase 10A, sequence (Q9Y233 whole entry): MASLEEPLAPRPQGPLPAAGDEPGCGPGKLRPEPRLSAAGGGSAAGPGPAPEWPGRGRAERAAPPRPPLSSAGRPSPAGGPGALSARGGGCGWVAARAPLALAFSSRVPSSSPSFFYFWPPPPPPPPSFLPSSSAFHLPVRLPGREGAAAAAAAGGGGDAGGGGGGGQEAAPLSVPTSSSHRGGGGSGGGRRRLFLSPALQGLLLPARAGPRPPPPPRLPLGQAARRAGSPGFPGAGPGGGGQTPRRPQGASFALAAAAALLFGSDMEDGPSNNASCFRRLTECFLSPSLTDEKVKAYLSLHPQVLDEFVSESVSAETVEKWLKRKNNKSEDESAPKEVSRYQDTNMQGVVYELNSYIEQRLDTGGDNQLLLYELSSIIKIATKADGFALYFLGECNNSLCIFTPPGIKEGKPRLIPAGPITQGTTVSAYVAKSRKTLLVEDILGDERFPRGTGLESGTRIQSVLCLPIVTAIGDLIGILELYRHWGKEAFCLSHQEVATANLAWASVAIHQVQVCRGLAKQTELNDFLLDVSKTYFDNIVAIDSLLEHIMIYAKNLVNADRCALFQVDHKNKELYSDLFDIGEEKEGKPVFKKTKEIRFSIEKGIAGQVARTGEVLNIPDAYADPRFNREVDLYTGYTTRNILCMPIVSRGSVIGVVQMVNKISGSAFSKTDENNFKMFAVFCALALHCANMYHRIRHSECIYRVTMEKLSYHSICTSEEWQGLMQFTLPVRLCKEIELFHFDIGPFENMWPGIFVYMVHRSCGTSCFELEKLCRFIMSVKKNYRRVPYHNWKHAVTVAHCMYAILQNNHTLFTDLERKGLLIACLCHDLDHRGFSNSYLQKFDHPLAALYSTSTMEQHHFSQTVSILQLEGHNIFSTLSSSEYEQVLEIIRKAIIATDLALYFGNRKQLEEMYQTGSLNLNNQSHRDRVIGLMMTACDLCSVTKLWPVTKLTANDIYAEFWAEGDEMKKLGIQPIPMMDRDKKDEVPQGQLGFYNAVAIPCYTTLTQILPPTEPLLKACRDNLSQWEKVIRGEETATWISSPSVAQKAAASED
Cytochrome P450 2D6, sequence (P10635 whole entry): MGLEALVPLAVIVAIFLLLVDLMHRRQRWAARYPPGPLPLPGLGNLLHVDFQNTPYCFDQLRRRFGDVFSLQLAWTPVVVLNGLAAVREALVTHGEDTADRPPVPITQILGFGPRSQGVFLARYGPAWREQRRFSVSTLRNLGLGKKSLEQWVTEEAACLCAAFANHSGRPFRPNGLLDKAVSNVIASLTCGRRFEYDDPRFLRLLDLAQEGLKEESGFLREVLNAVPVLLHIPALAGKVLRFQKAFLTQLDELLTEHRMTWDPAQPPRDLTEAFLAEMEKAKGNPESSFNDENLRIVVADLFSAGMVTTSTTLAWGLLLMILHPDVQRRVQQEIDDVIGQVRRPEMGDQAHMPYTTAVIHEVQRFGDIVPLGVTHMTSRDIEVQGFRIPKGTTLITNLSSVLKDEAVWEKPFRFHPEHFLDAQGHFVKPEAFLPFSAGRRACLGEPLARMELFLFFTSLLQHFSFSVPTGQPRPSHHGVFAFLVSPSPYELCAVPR

With `Cc1nc(C)c(CNc2nc(OCC3CC3c3cn(C)cn3)nc(Cl)c2C)s1` (racemic) the Ki [1] was 0.02 nM.

With `Cc1nc(C)c(CNc2nc(CCCCc3ccccn3)nc(Cl)c2C)s1` the Ki [1] was 0.4 nM.

Work on `Cc1nc(C)c(CNc2nc(OC[C@@H]3C[C@H]3c3ccccn3)nc(Cl)c2C)s1` yielded a Ki [1] of 8.6 nM.

With `Cc1nc(C)c(CNc2nc(C3CC3)nc(Cl)c2C)s1` the EC50 [2] was 19000 nM, the solubility [3] was 2 µM (≈ 0.618 µg/mL) and the fraction unbound [4] was 0.015. For the same compound, the IC50 [5] was 17000 nM and the IC50 [6] was 8200 nM.

Work on `Cc1nc(C)c(CNc2nc(OCC3CC3c3ccncc3)nc(Cl)c2C)s1` (stereo not drawn) yielded a Ki [1] of 8.3 nM.

`Cc1nc(C)c(CNc2nc(OCC3CC3c3cc4ccccn4n3)nc(Cl)c2C)s1` (racemic) gave a Ki [1] of 0.006 nM.

In the case of `Cn1cc(CNc2cc(OC[C@H]3C[C@@H]3c3ccccn3)nc3ccnn23)cn1`, the Activity [7] is reported as “Dose-dependent effect”, the EC50 [2] is reported as over 25000 nM and the Ki [1] is reported as 0.23 nM. It also gave a logD [8] of 2, an INH [9] of over 60 µM and a Papp [10] of 36 ×10⁻⁶ cm/s. For the same compound, the efflux ratio [11] was 0.6, the efflux ratio [12] was 0.7 and the TDI [13] was “Not Active”. For the same compound, the fraction unbound [4] was 0.09, the clearance [14] was 21 mL/min/kg and the fraction unbound [15] was 0.06. It also gave a fraction unbound [16] of 0.03, a fraction unbound [17] of 0.07 and an IC50 [18] of 2200 nM. The Activity [19] was “Non-toxic”, the clearance [20] was 3.9 mL/min/kg and the clearance [21] was 8.2 mL/min/kg. The half-life [22] was 4.9 h, the half-life [23] was 8.7 h and the half-life [24] was 2.8 h. For the same compound, the bioavailability [25] was 41%, the bioavailability [26] was 63% and the bioavailability [27] was 46%. The “inhibition (INH)” value [28] was over 150%, the Activity [29] was 130 nM and the Activity [30] was “Active”. For the same compound, the Activity [31] was “Non-toxic”, the Activity [32] was “Non-toxic” and the Activity [33] was “Non-toxic”. For the same compound, the Activity [34] was “Non-toxic”, the Activity [35] was “Non-toxic” and the Activity [36] was “Toxic”. For the same compound, the Activity [37] was “Toxic”, the Activity [38] was “Toxic” and the Occ50 [39] was 1.1 µM. The Ratio [40] was 2, the Selectivity ratio [41] was over 5800 and the IC50 [5] was over 50000 nM.

In the case of `Cc1nc(C)c(CNc2nc(OCC3CC3C3CCCN3C)nc(Cl)c2C)s1` (racemic; form 2), the Ki [1] is reported as 54 nM.

Work on `Cc1nc(C)c(CNc2nc(CCCOc3ccccn3)nc(Cl)c2C)s1` yielded a Ki [1] of 3.1 nM.

With `Clc1cc(Cl)n2nccc2n1` the Ki [1] was 24000 nM and the solubility [3] was over 500 µM.

With `Cc1nc(C)c(CNc2cc(C3CC3)nc3ccnn23)s1` the EC50 [2] was over 250000 nM, the solubility [3] was 196 µM (≈ 58.7 µg/mL) and the INH [9] was 52 µM. For the same compound, the fraction unbound [42] was 0.08 and the IC50 [5] was over 50000 nM.

For `Cc1nc(C)c(CNc2nc(NCC(C)(C)Cc3ccccn3)nc(Cl)c2C)s1`, the Ki [1] was 19.1 nM.

Compound `Cc1nc(C)c(CNc2nc(OCCCc3ccc4ccccc4n3)nc(Cl)c2C)s1` has an EC50 [2] of 2300 nM, an INH [9] of 3.8 µM and a clearance [14] of 60 mL/min/kg.

With `COc1ccnc(C2CC2COc2nc(Cl)c(C)c(NCc3sc(C)nc3C)n2)c1` (racemic) the Ki [1] was 0.01 nM.

In the case of `Cc1nc(C)c(CNc2nc(CC[C@H]3C[C@@H]3c3ccccn3)nc(Cl)c2C)s1` (racemic), the Ki [1] is reported as 1.7 nM.

Compound `Cc1nc(C)c(CNc2nc(NCCCc3ccccn3)nc(Cl)c2C)s1` has a Ki [1] of 4.1 nM.

With `Cc1c(Cl)nc(OC[C@H]2C[C@@H]2c2ccccn2)nc1NCc1cnn(C)c1` the EC50 [2] was 5600 nM, the solubility [3] was 162 µM (≈ 62.3 µg/mL) and the INH [9] was over 60 µM. For the same compound, the fraction unbound [42] was 0.01, the clearance [43] was 29 mL/min/kg and the Selectivity ratio [41] was over 2500. For the same compound, the IC50 [5] was 3800 nM and the IC50 [44] was 5200 nM.
